From patent publication US20130189773A1, “PRODUCTION OF HYPOTHIOCYANITE FROM HALOGENATED CELLS” (priority 2012, published 2013)

Tests used:
GSH reductase (GOR) = target: T1, GSH reductase (GOR) (Homo sapiens, UniProt P00390); test: inhibition of GSH reductase (GOR) by HOCl and repair by SCN^− (GOR-catalyzed reduction of GSSG by NADPH, kinetic traces at 340 nm); type: biochemical
T1 sequence (P00390 45-522 limits assumed): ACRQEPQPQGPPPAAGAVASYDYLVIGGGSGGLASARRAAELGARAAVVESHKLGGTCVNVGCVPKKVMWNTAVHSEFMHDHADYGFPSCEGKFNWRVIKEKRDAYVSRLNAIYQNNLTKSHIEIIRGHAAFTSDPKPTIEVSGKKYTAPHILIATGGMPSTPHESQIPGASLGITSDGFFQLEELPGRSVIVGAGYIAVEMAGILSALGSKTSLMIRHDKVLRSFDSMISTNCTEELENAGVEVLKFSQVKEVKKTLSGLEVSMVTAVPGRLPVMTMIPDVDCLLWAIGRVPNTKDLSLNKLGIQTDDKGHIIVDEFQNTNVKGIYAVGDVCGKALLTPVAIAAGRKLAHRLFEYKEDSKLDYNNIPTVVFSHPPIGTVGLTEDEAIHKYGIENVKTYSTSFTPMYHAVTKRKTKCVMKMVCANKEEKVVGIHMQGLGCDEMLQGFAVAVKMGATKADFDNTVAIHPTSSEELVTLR
Method: FIG. 2 contains kinetic traces at 340 nm depicting the GOR-catalyzed reduction of GSSG by NADPH. Conditions: (Control) [GSSG]o=1 mM, [NADPH]o=0.1 mM, [GOR]=0.025 U/mL, [iP]=0.1 M, pH 7.4 and T=25° C.; (SCN^- treated) GOR incubated with 40 μM HOCl for 20 minutes and then treated with 160 μM SCN^- for another 20 minutes. (HOCl modified) GOR incubated with 40 μM HOCl for 20 minutes and then treated with iP for an additional 20 minutes. […] Glutathione (GSH) is a major non-protein thiol in cells (up to mM concentrations have been reported in some cells). One of the cellular functions of GSH is to serve as an antioxidant, and thus GSH is essential for cell survival, especially during conditions of oxidative stress. Many of the important residues in the active site of GOR, including two cysteines ([…]) and tyrosine ([…]), are susceptible to HOCl attack. Oxidation of these residues results in the inhibition of enzyme activity.

A549 cells [1] = test: flow cytometry of percent live, necrotic and apoptotic A549 cells; type: cell-based, human
Method: A549 cells were untreated (A), treated with 50 μM HOCl (B), treated with 50 μM SCN^− followed by treatment with 50 μM HOCl, (C), or treated with 50 μM HOCl followed by treatment 30 minutes later with 50 μM SCN^− (D).
Using the same protocol that was used to investigate the reaction of intracellular chloramines with SCN^− (FIG. 3), flow cytometry was employed to investigate the percent of live, necrotic, and apoptotic cells (FIG. 4).

A549 cells [2] = test: fluorescent probe detection of HOCl-produced intracellular chloramines in A549 cells; type: cell-based, human
Method: In each experiment, A549 cells were incubated with 50 μM HOCl in RPMI culture medium for 20 min at 37° C. and washed with the medium to remove residual HOCl; the cells were then incubated for an additional 20 minutes at 37° C. with 50 μM SCN^− and washed again with the medium. FIG. 3D illustrates the structure of the rhodamine-hydroxymic acid-based probe utilized in FIGS. 3A-C.

| SMILES | loss of enzyme activity (GSH reductase (GOR); GOR ~1.3 nM treated with 40 μM HOCl for 20 minutes, loss within 13 minutes, pH 7.4, 25° C.) | cell killing (A549 cells [1]; 50 μM HOCl (FIG. 4B)) | apoptotic cells (A549 cells [1]; under the conditions of these experiments (50 μM HOCl with or without 50 μM SCN^−)) | fluorescence with probe compound (1) (intracellular chloramines) (A549 cells [2]; A549 cells treated with 50 μM HOCl 20 min 37° C., then probe (FIG. 3B)) | enzyme activity recovered (GSH reductase (GOR); HOCl-modified GOR (40 μM HOCl, 20 minutes) subsequently treated with 160 μM SCN^− for 20 minutes) | recovery of HOCl-damaged cells (A549 cells [1]; 50 μM SCN^− added within 30 minutes after 50 μM HOCl (FIG. 4D)) | protection of cells from HOCl (A549 cells [1]; 50 μM SCN^− present before 50 μM HOCl was added (FIG. 4C)) | recovery of HOCl-damaged cells (A549 cells [1]; interval for addition of SCN^− after HOCl 1 hour or more (data not shown)) | fluorescence with probe compound (1) (intracellular chloramines) (A549 cells [2]; A549 cells treated with 50 μM HOCl and subsequently with 50 μM SCN^− 20 minutes (FIG. 3C)) | fluorescence with probe compound (1) (intracellular chloramines) (A549 cells [2]; A549 cells treated with HOCl in the presence of SCN^− (data not shown)) |
| --- | --- | --- | --- | --- | --- | --- | --- | --- | --- | --- |
| OCl [HOCl, hypochlorous acid, reference compound] | ~82% | kill roughly half of the cells | essentially no apoptotic cells were observed | fluoresced |  |  |  |  |  |  |
| N#CS [SCN^−, thiocyanate] |  |  |  |  | ~89% | the cells were resuscitated | efficient scavenger of HOCl | recovery was not observed | do not fluoresce | did not fluoresce |
